Experimental data reported in the supplement of paper PMC9663587.

What was measured:
Cabozantinib = compound: COc1cc2nccc(Oc3ccc(NC(=O)C4(C(=O)Nc5ccc(F)cc5)CC4)cc3)c2cc1OC [Cabozantinib]
Paclitaxel = compound: CC(=O)O[C@H]1C(=O)[C@@]2(C)[C@H]([C@H](OC(=O)c3ccccc3)[C@]3(O)C[C@H](OC(=O)[C@H](O)[C@@H](NC(=O)c4ccccc4)c4ccccc4)C(C)=C1C3(C)C)[C@]1(OC(C)=O)CO[C@@H]1C[C@@H]2O [Paclitaxel]
[1] = compound: CCN1CCN(Cc2ccc(Nc3ncc(F)c(-c4cc(F)c5nc(C)n(C(C)C)c5c4)n3)nc2)CC1
BSJ-03-123 = compound: CC(=O)c1c(C)c2cnc(Nc3ccc(N4CCN(CCOCCOCCOCCNC(=O)COc5cccc6c5C(=O)N(C5CCC(=O)NC5=O)C6=O)CC4)cn3)nc2n(C2CCCC2)c1=O [BSJ-03-123]
Vorinostat = compound: O=C(CCCCCCC(=O)Nc1ccccc1)NO [Vorinostat]
AZD5363 = compound: NC1(C(=O)N[C@@H](CCO)c2ccc(Cl)cc2)CCN(c2nc[nH]c3nccc2-3)CC1 [AZD5363]
Buparlisib/NVP-BKM120 = compound: Nc1cc(C(F)(F)F)c(-c2cc(N3CCOCC3)nc(N3CCOCC3)n2)cn1 [Buparlisib/NVP-BKM120]
SHP099 = compound: CC1(CCN(CC1)C2=CN=C(C(=N2)N)C3=C(C(=CC=C3)Cl)Cl)N [SHP099]
[2] = compound: CCc1cnn2c(NCc3ccc[n+]([O-])c3)cc(N3CCCC[C@H]3CCO)nc12
LEE011/Ribociclib = compound: CN(C)C(=O)c1cc2cnc(Nc3ccc(N4CCNCC4)cn3)nc2n1C1CCCC1 [LEE011/Ribociclib]; experiment: GR value, 72 h; higher = faster growth (1 = untreated, <0 = killing);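 note: breast cancer and non-malignant breast epithelial lines, nine half-log doses, viable cells counted by Hoechst and LIVE/DEAD dye imaging versus time-zero plates and DMSO controls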
THZ1 = compound: CN(C)C/C=C/C(=O)Nc1ccc(C(=O)Nc2cccc(Nc3ncc(Cl)c(-c4c[nH]c5ccccc45)n3)c2)cc1 [THZ1]; experiment: as above
[3] = compound: CCN1CCN(Cc2ccc(Nc3ncc(F)c(-c4cc(F)c5nc(C)n(C(C)C)c5c4)n3)nc2)CC1; experiment: as above
[4] = compound: CC(=O)c1c(C)c2cnc(Nc3ccc(N4CCNCC4)cn3)nc2n(C2CCCC2)c1=O; experiment: as above
THZ531 = compound: CN(C)C/C=C/C(=O)Nc1ccc(C(=O)N2CCC[C@@H](Nc3ncc(Cl)c(-c4c[nH]c5ccccc45)n3)C2)cc1 [THZ531]; experiment: as above
YKL-5-124 = compound: C=CC(=O)Nc1ccc(C(=O)Nc2[nH]nc3c2CN(C(=O)N[C@H](CN(C)C)c2ccccc2)C3(C)C)cc1 [YKL-5-124]; experiment: as above
Flavopiridol = compound: CN1CC[C@H](c2c(O)cc(O)c3c(=O)cc(-c4ccccc4Cl)oc23)[C@H](O)C1 [Flavopiridol]; experiment: as above
[5] = compound: CCc1cnn2c(NCc3ccc[n+]([O-])c3)cc(N3CCCC[C@H]3CCO)nc12; experiment: as above
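Throughout, for GR50, 72 h: breast cancer and non-malignant breast epithelial cell lines, Deep Dye Drop or Dye Drop imaging, nine half-log doses, GR normalized to time-zero plates and DMSO-only controls.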

SUM44PE
GR50, 72 h (Cabozantinib): 5.47 µM | GR50, 72 h (Paclitaxel): 0.00153 µM | GR50, 72 h [1]: 0.0473 µM | GR50, 72 h (BSJ-03-123): 0.818 µM | GR50, 72 h (Vorinostat): 1.86 µM | GR50, 72 h (AZD5363): 0.0475 µM | GR50, 72 h (Buparlisib/NVP-BKM120): 0.412 µM | GR50, 72 h (SHP099): > 10 µM | GR50, 72 h [2]: 0.00834 µM | GR value (LEE011/Ribociclib; 0.001 µM): 0.854 GR | GR value (LEE011/Ribociclib; 0.003162 µM): 0.783 GR | GR value (LEE011/Ribociclib; 0.01 µM): 0.676 GR | GR value (LEE011/Ribociclib; 0.03162 µM): 0.637 GR | GR value (LEE011/Ribociclib; 0.1 µM): 0.663 GR | GR value (LEE011/Ribociclib; 0.3162 µM): 0.636 GR | GR value (LEE011/Ribociclib; 1 µM): 0.55 GR | GR value (LEE011/Ribociclib; 3.162 µM): 0.545 GR | GR value (LEE011/Ribociclib; 10 µM): 0.378 GR | GR value (THZ1; 0.0001 µM): 1.02 GR | GR value (THZ1; 0.0003162 µM): 0.977 GR | GR value (THZ1; 0.001 µM): 0.784 GR | GR value (THZ1; 0.003162 µM): 0.888 GR | GR value (THZ1; 0.01 µM): -0.229 GR | GR value (THZ1; 1 µM): -0.0313 GR | GR value ([3]; 0.001 µM): 0.905 GR | GR value ([3]; 0.003162 µM): 0.922 GR | GR value ([3]; 0.01 µM): 0.666 GR | GR value ([3]; 0.03162 µM): 0.413 GR | GR value ([3]; 0.1 µM): 0.251 GR | GR value ([3]; 0.3162 µM): 0.237 GR | GR value ([3]; 1 µM): 0.201 GR | GR value ([3]; 3.162 µM): 0.134 GR | GR value ([3]; 10 µM): -0.763 GR | GR value ([4]; 0.0003162 µM): 1.09 GR | GR value ([4]; 0.001 µM): 0.993 GR | GR value ([4]; 0.003162 µM): 1.03 GR | GR value ([4]; 0.01 µM): 1.04 GR | GR value ([4]; 0.03162 µM): 0.784 GR | GR value ([4]; 0.1 µM): 0.588 GR | GR value ([4]; 0.3162 µM): 0.461 GR | GR value ([4]; 1 µM): 0.514 GR | GR value ([4]; 3.162 µM): 0.397 GR | GR value (THZ531; 0.0001 µM): 1.05 GR | GR value (THZ531; 0.0003162 µM): 0.994 GR | GR value (THZ531; 0.001 µM): 0.799 GR | GR value (THZ531; 0.003162 µM): 1.04 GR | GR value (THZ531; 0.01 µM): 0.941 GR | GR value (THZ531; 0.03162 µM): 0.783 GR | GR value (THZ531; 0.1 µM): -0.203 GR | GR value (YKL-5-124; 0.001 µM): -0.181 GR | GR value (YKL-5-124; 0.003162 µM): 0.0065 GR | GR value (YKL-5-124; 0.01 µM): -0.018 GR | GR value (YKL-5-124; 0.03162 µM): -0.112 GR | GR value (YKL-5-124; 0.1 µM): -0.198 GR | GR value (YKL-5-124; 0.3162 µM): -0.167 GR | GR value (YKL-5-124; 1 µM): -0.274 GR | GR value (YKL-5-124; 3.162 µM): -0.448 GR | GR value (Flavopiridol; 0.0001 µM): 0.968 GR | GR value (Flavopiridol; 0.0003162 µM): 0.969 GR | GR value (Flavopiridol; 0.001 µM): 0.862 GR | GR value (Flavopiridol; 0.003162 µM): 0.951 GR | GR value (Flavopiridol; 0.01 µM): 0.707 GR | GR value (Flavopiridol; 0.03162 µM): 0.489 GR | GR value (Flavopiridol; 0.1 µM): -0.0333 GR | GR value (Flavopiridol; 0.3162 µM): -0.573 GR | GR value ([5]; 0.0001 µM): 0.983 GR | GR value ([5]; 0.0003162 µM): 1.03 GR | GR value ([5]; 0.001 µM): 1.08 GR | GR value ([5]; 0.003162 µM): 0.918 GR | GR value ([5]; 0.01 µM): 0.257 GR | GR value ([5]; 0.03162 µM): -0.925 GR

SUM52PE
GR50, 72 h (Cabozantinib): 0.736 µM | GR50, 72 h (Paclitaxel): 0.00165 µM | GR50, 72 h [1]: 0.376 µM | GR50, 72 h (BSJ-03-123): 3.42 µM | GR50, 72 h (Vorinostat): 4.26 µM | GR50, 72 h (AZD5363): 3.52 µM | GR50, 72 h (Buparlisib/NVP-BKM120): 0.738 µM | GR50, 72 h (SHP099): > 10 µM | GR50, 72 h [2]: 0.0196 µM | GR value (LEE011/Ribociclib; 0.001 µM): 0.991 GR | GR value (LEE011/Ribociclib; 0.003162 µM): 0.857 GR | GR value (LEE011/Ribociclib; 0.01 µM): 0.861 GR | GR value (LEE011/Ribociclib; 0.03162 µM): 0.86 GR | GR value (LEE011/Ribociclib; 0.1 µM): 0.822 GR | GR value (LEE011/Ribociclib; 0.3162 µM): 0.797 GR | GR value (LEE011/Ribociclib; 1 µM): 0.69 GR | GR value (LEE011/Ribociclib; 3.162 µM): 0.681 GR | GR value (LEE011/Ribociclib; 10 µM): 0.54 GR | GR value (THZ1; 0.0001 µM): 1.03 GR | GR value (THZ1; 0.0003162 µM): 1.01 GR | GR value (THZ1; 0.001 µM): 1.04 GR | GR value (THZ1; 0.003162 µM): 0.8 GR | GR value (THZ1; 0.01 µM): 0.733 GR | GR value (THZ1; 0.03162 µM): 0.0891 GR | GR value (THZ1; 0.1 µM): -0.0885 GR | GR value (THZ1; 0.3162 µM): -0.151 GR | GR value (THZ1; 1 µM): -0.403 GR | GR value ([3]; 0.001 µM): 0.991 GR | GR value ([3]; 0.003162 µM): 0.962 GR | GR value ([3]; 0.01 µM): 0.86 GR | GR value ([3]; 0.03162 µM): 0.766 GR | GR value ([3]; 0.1 µM): 0.619 GR | GR value ([3]; 0.3162 µM): 0.497 GR | GR value ([3]; 1 µM): 0.459 GR | GR value ([3]; 3.162 µM): 0.365 GR | GR value ([3]; 10 µM): 0.289 GR | GR value ([4]; 0.0003162 µM): 1.1 GR | GR value ([4]; 0.001 µM): 1.06 GR | GR value ([4]; 0.003162 µM): 1.01 GR | GR value ([4]; 0.01 µM): 0.97 GR | GR value ([4]; 0.03162 µM): 0.863 GR | GR value ([4]; 0.1 µM): 0.695 GR | GR value ([4]; 0.3162 µM): 0.607 GR | GR value ([4]; 1 µM): 0.475 GR | GR value ([4]; 3.162 µM): 0.348 GR | GR value (THZ531; 0.0001 µM): 1.05 GR | GR value (THZ531; 0.0003162 µM): 0.984 GR | GR value (THZ531; 0.001 µM): 0.937 GR | GR value (THZ531; 0.003162 µM): 0.994 GR | GR value (THZ531; 0.01 µM): 1.02 GR | GR value (THZ531; 0.03162 µM): 0.978 GR | GR value (THZ531; 0.1 µM): 0.818 GR | GR value (THZ531; 0.3162 µM): 0.186 GR | GR value (THZ531; 1 µM): -0.226 GR | GR value (YKL-5-124; 0.001 µM): 0.72 GR | GR value (YKL-5-124; 0.003162 µM): 0.654 GR | GR value (YKL-5-124; 0.01 µM): 0.573 GR | GR value (YKL-5-124; 0.03162 µM): 0.552 GR | GR value (YKL-5-124; 0.1 µM): 0.437 GR | GR value (YKL-5-124; 0.3162 µM): 0.391 GR | GR value (YKL-5-124; 1 µM): 0.364 GR | GR value (YKL-5-124; 3.162 µM): 0.227 GR | GR value (YKL-5-124; 10 µM): 0.0112 GR | GR value (Flavopiridol; 0.0001 µM): 1.07 GR | GR value (Flavopiridol; 0.0003162 µM): 1.06 GR | GR value (Flavopiridol; 0.001 µM): 0.942 GR | GR value (Flavopiridol; 0.003162 µM): 0.915 GR | GR value (Flavopiridol; 0.01 µM): 1.02 GR | GR value (Flavopiridol; 0.03162 µM): 0.945 GR | GR value (Flavopiridol; 0.1 µM): 0.8 GR | GR value (Flavopiridol; 0.3162 µM): 0.357 GR | GR value (Flavopiridol; 1 µM): -0.26 GR | GR value ([5]; 0.0001 µM): 1.08 GR | GR value ([5]; 0.0003162 µM): 1.14 GR | GR value ([5]; 0.001 µM): 1.01 GR | GR value ([5]; 0.003162 µM): 1.05 GR | GR value ([5]; 0.01 µM): 0.925 GR | GR value ([5]; 0.03162 µM): -0.0619 GR | GR value ([5]; 0.1 µM): -0.245 GR | GR value ([5]; 0.3162 µM): -0.322 GR | GR value ([5]; 1 µM): -0.175 GR
